Literature values in patent publication US20200078333A1, “Healthier Aging in Domesticated Animals” (priority 2016, published 2020).
Blank lines part the entries; values can stand above or below the molecule they belong to.

How the values were obtained:
[1] = molecular target: human CB1 cannabinoid receptors (Homo sapiens, UniProt P21554); settings: selective binding; function as antagonists/inverse agonists
CB2 [2] = molecular target: T1, CB2 (Homo sapiens, UniProt P34972)
[3] = healthy as well as unhealthy persons
CB2 [4] = molecular target: T1, CB2; remark: listed apart in the source
CB1 [5] = molecular target: T2, CB1 (Homo sapiens, UniProt P21554); settings: read-out: binding affinity to CB1
T2 sequence (P21554 whole entry, species assumed): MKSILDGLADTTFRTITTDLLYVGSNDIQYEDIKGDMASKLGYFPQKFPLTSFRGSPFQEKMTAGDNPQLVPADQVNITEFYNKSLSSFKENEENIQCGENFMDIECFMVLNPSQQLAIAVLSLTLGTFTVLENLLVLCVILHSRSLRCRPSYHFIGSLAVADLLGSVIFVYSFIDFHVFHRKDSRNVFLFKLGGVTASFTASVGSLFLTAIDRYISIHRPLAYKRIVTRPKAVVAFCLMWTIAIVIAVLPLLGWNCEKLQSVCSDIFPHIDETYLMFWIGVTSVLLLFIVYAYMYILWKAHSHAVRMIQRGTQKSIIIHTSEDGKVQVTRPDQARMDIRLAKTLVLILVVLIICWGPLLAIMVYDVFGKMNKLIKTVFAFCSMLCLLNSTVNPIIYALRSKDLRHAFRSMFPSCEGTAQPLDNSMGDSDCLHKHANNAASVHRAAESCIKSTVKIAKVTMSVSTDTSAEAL

CB1 [6] = molecular target: T2, CB1; settings: Ca2+ flux induced by AEA
[7] = system: nitric oxide (NO) production; settings: read-out: IC50 for inhibition of NO production

T1 sequence (P34972 whole entry, species assumed): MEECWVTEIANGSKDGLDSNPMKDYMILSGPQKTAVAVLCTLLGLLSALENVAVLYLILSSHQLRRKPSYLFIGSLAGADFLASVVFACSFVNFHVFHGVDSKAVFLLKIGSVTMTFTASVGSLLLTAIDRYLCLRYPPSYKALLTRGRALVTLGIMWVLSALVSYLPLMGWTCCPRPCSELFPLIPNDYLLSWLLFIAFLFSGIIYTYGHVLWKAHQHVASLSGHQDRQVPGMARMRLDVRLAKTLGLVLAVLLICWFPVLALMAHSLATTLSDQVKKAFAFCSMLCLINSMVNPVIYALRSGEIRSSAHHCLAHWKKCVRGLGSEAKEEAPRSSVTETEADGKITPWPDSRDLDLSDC
human CB1 cannabinoid receptors, sequence (P21554 whole entry): as the sequence (P21554 whole entry, species assumed) above

affinity for human CB1 cannabinoid receptors [1]: nanomolar affinities
affinity for CB2 (CB2 [2]): micromolar affinity
Structure (SMILES): COc1cc(/C=C/C(=O)CC(=O)/C=C/c2ccc(O)c(OC)c2)ccc1O [curcumin]

Structure (SMILES): Oc1ccc(/C=C/c2cc(O)cc(O)c2)cc1 [trans-resveratrol]
affinity for human CB1 cannabinoid receptors [1]: nanomolar affinities

Structure (SMILES): COC1=C(OC)C(=O)C(C/C=C(\C)CC/C=C(\C)CC/C=C(\C)CC/C=C(\C)CC/C=C(\C)CC/C=C(\C)CC/C=C(\C)CC/C=C(\C)CC/C=C(\C)CCC=C(C)C)=C(C)C1=O [CoQ10, ubiquinone]
tolerated daily dosage [3]: up to 3600 mg

Structure (SMILES): CCCCCC=CCCC=CC=CC(=O)N1CCCCC1 [1-[(2E,4E,8Z)-tetradecatrienoyl] piperidine]
CB1/CB2 affinity (CB2 selectivity) (CB2 [4]; ratio CB1/CB2): ~5
Ki (CB2 [4]; read-out: binding affinity to CB2): 0.16 µM
Ki (CB1 [5]): 0.8 µM

Structure (SMILES): CC1(C)[C@@H](O)CC[C@]2(C)[C@H]3C(=O)C=C4[C@@H]5C[C@@](C)(C(=O)O)CC[C@]5(C)CC[C@@]4(C)[C@]3(C)CC[C@@H]12 [18β-glycyrrhetinic acid]
inhibition in responses to CB1 agonist (CB1 [6]): more than 90%

Structure (SMILES): C=CCc1ccc(O)c(-c2cc(CC=C)ccc2O)c1 [magnolol]
IC50 [7]: ~6.2 µM
